Experimental data taken from patent publication US8722849B2, “Polypeptides” (Novo Nordisk A/S, priority 2011, dated 2014).
Converted amounts (≈) assume the structure as drawn. Like-named read-outs stand apart in the source and are kept apart here. Starred links: 1 amine or outer side, 2 acyl side, 3 side chain; linkers in the order of their positions; H or OH if unused. Positions of bridges follow the written chain, without caps; N, C: chain ends. Residues, ends and D or L forms follow the SMILES beside them. *: point of attachment. C20 diacid = O=C(O)CCCCCCCCCCCCCCCCCCC(=O)*; C18 diacid = O=C(O)CCCCCCCCCCCCCCCCC(=O)*; γGlu = O=C(O)[C@H](CCC(=O)[*:2])N[*:1]

Assays:
[1] = Assay (IV) determination of solubility; type: physicochemical
Procedure, shortened: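 Solubility was profiled across pH 3.0–8.0 after 18 hours at room temperature: a ~500 nmol/ml aqueous polypeptide solution was diluted 1:1 into 100 mM glycylglycine or bistrispropane buffers. After centrifugation, HPLC gave the dissolved concentration.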

[2] = Assay (III) ThT fibrillation assay for physical stability; type: physicochemical
Procedure, shortened: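 Freshly prepared formulations, pH-adjusted, with 1 μM ThT; four or eight replicates incubated at 37 °C under 960 rpm orbital shaking. Fluorescence (ex 444/em 485 nm) read every 20 min; […]. Peptide concentration measured by RP-HPLC before and after the run.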

[3] = bistrispropane buffer, pH 6, pH 6.0, read-out: Solubility pH 6.0
[4] = bistrispropane buffer, pH 6.5, pH 6.5, read-out: Solubility pH 6.5
[5] = bistrispropane buffer, pH 7, pH 7.0, 18 hours at room temperature, Table 3, read-out: Solubility pH 7.0
[6] = bistrispropane buffer, pH 7, pH 7.0, Table 8, read-out: Solubility pH 7.0
[7] = bistrispropane buffer, pH 7, pH 7.0, read-out: Solubility pH 7.0
[8] = bistrispropane buffer, pH 7.5, pH 7.5, read-out: Solubility pH 7.5
[9] = bistrispropane buffer, pH 8, pH 8.0, read-out: Solubility pH 8.0
[10] = glycylglycine buffer, pH 3, pH 3.0, read-out: Solubility pH 3.0
[11] = glycylglycine buffer, pH 4, pH 4.0, 18 hours at room temperature, Table 2, read-out: Solubility pH 4.0
[12] = glycylglycine buffer, pH 4, pH 4.0, read-out: Solubility pH 4.0
[13] = glycylglycine buffer, pH 5, pH 5.0, read-out: Solubility pH 5.0

Structure (SMILES)	solubility at 18 h [1, 3]	solubility at 18 h [1, 4]	solubility at 18 h [1, 5]	solubility at 18 h [1, 6]	solubility at 18 h [1, 7]	solubility at 18 h [1, 8]	solubility at 18 h [1, 9]	solubility at 18 h [1, 10]	solubility at 18 h [1, 11]	solubility at 18 h [1, 12]	solubility at 18 h [1, 13]	ThT pH 4.0 lag time ([2]; Table 8)	ThT pH 4.0 lag time ([2]; ThT fibrillation assay)	ThT pH 4.0 lag time (h) ([2]; ThT fibrillation assay)
CC[C@H](C)[C@H](NC(=O)[C@@H]1CCCN1C(=O)CNC(=O)[C@H](Cc1ccccc1)NC(=O)[C@H](CC(N)=O)NC(=O)[C@H](CC(N)=O)NC(=O)[C@H](CO)NC(=O)[C@H](CO)NC(=O)[C@H](Cc1c[nH]cn1)NC(=O)[C@H](CCCNC(=N)N)NC(=O)[C@H](CC(C)C)NC(=O)[C@H](Cc1ccccc1)NC(=O)[C@H](CCC(=O)O)NC(=O)[C@H](C)NC(=O)[C@H](CC(C)C)NC(=O)[C@H](CCCNC(=N)N)NC(=O)[C@H](CCC(N)=O)NC(=O)[C@@H](NC(=O)[C@H](C)NC(=O)[C@@H]1CSSC[C@H](NC(=O)[C@H](CCCCN)NC(=O)[C@H](CCC(=O)O)NC(=O)CC[C@H](NC(=O)CCCCCCCCCCCCCCCCC(=O)O)C(=O)O)C(=O)N[C@@H](CC(N)=O)C(=O)N[C@@H]([C@@H](C)O)C(=O)N[C@@H](C)C(=O)N[C@@H]([C@@H](C)O)C(=O)N1)[C@@H](C)O)C(=O)N[C@@H](CC(C)C)C(=O)N1CCC[C@H]1C(=O)N1CCC[C@H]1C(=O)N[C@H](C(=O)N[C@@H](CC(N)=O)C(=O)N[C@H](C(=O)NCC(=O)N[C@@H](CO)C(=O)N[C@@H](Cc1c[nH]cn1)C(=O)N[C@H](C(=O)N[C@@H](Cc1ccc(O)cc1)C(N)=O)[C@@H](C)O)C(C)C)[C@@H](C)O [Example 62, N-alpha-[(S)-4-Carboxy-4-(17-carboxyheptadecanoylamino)butyryl]-Glu-[Glu14,Arg17,His35]-pramlintide] ({C18 diacid-γGlu}-EKCNTATCATQRLAEFLRHSSNNFGPILPPTNVGSHTY-NH2; disulfide 3-8 (inferred); C-terminus assumed)	> 200 µM	> 200 µM	> 200 µM	> 200 µM	> 200 µM	> 200 µM	> 200 µM	> 200 µM	> 200 µM	> 200 µM	> 200 µM	30 h	30 h	30 h
CC(C)C[C@H](NC(=O)[C@H](CCCNC(=N)N)NC(=O)[C@H](CCC(N)=O)NC(=O)[C@@H](NC(=O)[C@H](C)NC(=O)[C@@H]1CSSC[C@H](NC(=O)[C@H](CCCCN)NC(=O)CC[C@H](NC(=O)CCCCCCCCCCCCCCCCCCC(=O)O)C(=O)O)C(=O)N[C@@H](CC(N)=O)C(=O)N[C@@H]([C@@H](C)O)C(=O)N[C@@H](C)C(=O)N[C@@H]([C@@H](C)O)C(=O)N1)[C@@H](C)O)C(=O)N[C@@H](C)C(=O)N[C@@H](CCC(=O)O)C(=O)N[C@@H](Cc1ccccc1)C(=O)N[C@@H](CC(C)C)C(=O)N[C@@H](CCCNC(=N)N)C(=O)N[C@@H](Cc1c[nH]cn1)C(=O)N[C@@H](CO)C(=O)N[C@@H](CO)C(=O)N[C@@H](CC(N)=O)C(=O)N[C@@H](CC(N)=O)C(=O)N[C@@H](Cc1ccccc1)C(=O)NCC(=O)N[C@@H](C)C(=O)N1CCC[C@H]1C(=O)N[C@@H](CC(C)C)C(=O)N[C@@H](CO)C(=O)N[C@@H](CO)C(=O)N[C@H](C(=O)N[C@@H](CC(N)=O)C(=O)N[C@H](C(=O)NCC(=O)N[C@@H](CO)C(=O)N[C@@H](Cc1c[nH]cn1)C(=O)N[C@H](C(=O)N[C@@H](Cc1ccc(O)cc1)C(N)=O)[C@@H](C)O)C(C)C)[C@@H](C)O [Example 65, N-alpha-[(S)-4-Carboxy-4-(19-carboxynonadecanoylamino)butyryl]-[Glu14,Arg17,Ala25,Pro26,Ser28,Ser29,His35]-pramlintide] ({C20 diacid-γGlu}-KCNTATCATQRLAEFLRHSSNNFGAPLSSTNVGSHTY-NH2; disulfide 2-7 (inferred); C-terminus assumed)	> 200 µM	> 200 µM	176 µM (≈ 781 µg/mL)	176 µM (≈ 781 µg/mL)	176 µM (≈ 781 µg/mL)	96 µM (≈ 426 µg/mL)	89 µM (≈ 395 µg/mL)	> 200 µM	> 200 µM	> 200 µM	> 200 µM	>45 h	>45 h	>45 h
CC[C@H](C)[C@H](NC(=O)[C@@H]1CCCN1C(=O)CNC(=O)[C@H](Cc1ccccc1)NC(=O)[C@H](CC(N)=O)NC(=O)[C@H](CC(N)=O)NC(=O)[C@H](CO)NC(=O)[C@H](CO)NC(=O)[C@H](Cc1c[nH]cn1)NC(=O)[C@H](Cc1c[nH]cn1)NC(=O)[C@H](CC(C)C)NC(=O)[C@H](Cc1ccccc1)NC(=O)[C@H](CCC(=O)O)NC(=O)[C@H](C)NC(=O)[C@H](CC(C)C)NC(=O)[C@H](CCCNC(=N)N)NC(=O)[C@H](CCC(N)=O)NC(=O)[C@@H](NC(=O)[C@H](C)NC(=O)[C@@H]1CSSC[C@H](NC(=O)[C@H](CCCCN)NC(=O)[C@H](Cc2c[nH]cn2)NC(=O)CC[C@H](NC(=O)CCCCCCCCCCCCCCCCCCC(=O)O)C(=O)O)C(=O)N[C@@H](CC(N)=O)C(=O)N[C@@H]([C@@H](C)O)C(=O)N[C@@H](C)C(=O)N[C@@H]([C@@H](C)O)C(=O)N1)[C@@H](C)O)C(=O)N[C@@H](CC(C)C)C(=O)N1CCC[C@H]1C(=O)N1CCC[C@H]1C(=O)N[C@H](C(=O)N[C@@H](CC(N)=O)C(=O)N[C@H](C(=O)NCC(=O)N[C@@H](CO)C(=O)N[C@@H](Cc1c[nH]cn1)C(=O)N[C@H](C(=O)N[C@@H](Cc1ccc(O)cc1)C(N)=O)[C@@H](C)O)C(C)C)[C@@H](C)O [Example 66, N-alpha-[(S)-4-Carboxy-4-(19-carboxynonadecanoylamino)butyryl]-His-[Glu14,His17,His35]-pramlintide] ({C20 diacid-γGlu}-HKCNTATCATQRLAEFLHHSSNNFGPILPPTNVGSHTY-NH2; disulfide 3-8 (inferred); C-terminus assumed)	> 200 µM	155 µM (≈ 716 µg/mL)	–	–	46 µM (≈ 212 µg/mL)	77 µM (≈ 355 µg/mL)	144 µM (≈ 665 µg/mL)	> 200 µM	> 200 µM	> 200 µM	> 200 µM	–	>45 h	>45 h
CC[C@H](C)[C@H](NC(=O)[C@@H]1CCCN1C(=O)CNC(=O)[C@H](Cc1ccccc1)NC(=O)[C@H](CC(N)=O)NC(=O)[C@H](CC(N)=O)NC(=O)[C@H](CO)NC(=O)[C@H](CO)NC(=O)[C@H](Cc1c[nH]cn1)NC(=O)[C@H](CCCNC(=N)N)NC(=O)[C@H](CC(C)C)NC(=O)[C@H](Cc1ccccc1)NC(=O)[C@H](CCC(=O)O)NC(=O)[C@H](C)NC(=O)[C@H](CC(C)C)NC(=O)[C@H](CCCNC(=N)N)NC(=O)[C@H](CCC(N)=O)NC(=O)[C@@H](NC(=O)[C@H](C)NC(=O)[C@@H]1CSSC[C@H](NC(=O)[C@H](CCCCN)NC(=O)[C@H](Cc2c[nH]cn2)NC(=O)CC[C@H](NC(=O)CCCCCCCCCCCCCCCCC(=O)O)C(=O)O)C(=O)N[C@@H](CC(N)=O)C(=O)N[C@@H]([C@@H](C)O)C(=O)N[C@@H](C)C(=O)N[C@@H]([C@@H](C)O)C(=O)N1)[C@@H](C)O)C(=O)N[C@@H](CC(C)C)C(=O)N1CCC[C@H]1C(=O)N1CCC[C@H]1C(=O)N[C@H](C(=O)N[C@@H](CC(N)=O)C(=O)N[C@H](C(=O)NCC(=O)N[C@@H](CO)C(=O)N[C@@H](Cc1c[nH]cn1)C(=O)N[C@H](C(=O)N[C@@H](Cc1ccc(O)cc1)C(N)=O)[C@@H](C)O)C(C)C)[C@@H](C)O [Example 71, N-alpha-[(S)-4-Carboxy-4-(17-carboxyheptadecanoylamino)butyryl]-His-[Glu14,Arg17,His35]-pramlintide] ({C18 diacid-γGlu}-HKCNTATCATQRLAEFLRHSSNNFGPILPPTNVGSHTY-NH2; disulfide 3-8 (inferred); C-terminus assumed)	> 200 µM	156 µM (≈ 719 µg/mL)	–	–	37 µM (≈ 170 µg/mL)	27 µM (≈ 124 µg/mL)	26 µM (≈ 120 µg/mL)	> 200 µM	> 200 µM	> 200 µM	> 200 µM	–	>45 h	>45 h
